Measured values: the supplement of paper PMC4862054

How the values were obtained:
Experiment in all cases: normalised response (% of control), CellTox Green; higher = less cell death (100 = DMSO, 0 = benzethonium chloride kill control)
Settings in all cases: incubation time: 72 h
[1] = system: BT-474
How it was run: (§1)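 Breast cancer cell lines (20 µl suspension) were seeded into 384-well plates holding compound at 5 concentrations in 10-fold steps over a compound-specific 10,000-fold range, then incubated 72 h. CellTox Green fluorescence (485/520 nm) was read first, then CellTiter-Glo luminescence after 10 min at room temperature. Each plate was normalised to 0.1 % DMSO (100) and a positive kill control (0). Each value is the normalised signal at a single concentration of the series.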

[2] = system: BT-549
How it was run: as §1

[3] = system: CAL-120
How it was run: as §1

[4] = system: CAL-148
How it was run: as §1

[5] = system: CAL-51
How it was run: as §1

[6] = system: CAL-85-1
How it was run: as §1

[7] = system: DU-4475
How it was run: as §1

[8] = system: HCC1143
How it was run: as §1

[9] = system: HCC1599
How it was run: as §1

[10] = system: HCC1937
How it was run: as §1

[11] = system: HDQ-P1
How it was run: as §1

[12] = system: MCF-10A
How it was run: as §1

[13] = system: MDA-MB-231
How it was run: as §1

[14] = system: MDA-MB-436
How it was run: as §1

[15] = system: MDA-MB-453
How it was run: as §1

[16] = system: MDA-MB-468
How it was run: as §1

[17] = system: MFM-223
How it was run: as §1

[18] = system: Hs578T
How it was run: as §1

Structure (SMILES) | normalised response [1] [%] | normalised response [2] [%] | normalised response [3] [%] | normalised response [4] [%] | normalised response [5] [%] | normalised response [6] [%] | normalised response [7] [%] | normalised response [8] [%] | normalised response [9] [%] | normalised response [10] [%] | normalised response [11] [%] | normalised response [12] [%] | normalised response [13] [%] | normalised response [14] [%] | normalised response [15] [%] | normalised response [16] [%] | normalised response [17] [%] | normalised response [18] [%]
CN1CCC(COc2cnc(-c3cccc(Cn4nc(-c5cccc(C#N)c5)ccc4=O)c3)nc2)CC1 (1000 nM) | 98.4 | 115 | 95.6 | 103 | 99.9 | 85 | 105 | 128 | 106 | 123 | 95.5 | 88.3 | 125 | 112 | 105 | 140 | 94 | 
CN(C)C/C=C/C(=O)Nc1cc2c(Nc3ccc(F)c(Cl)c3)ncnc2cc1O[C@H]1CCOC1 [Afatinib] (1000 nM) | 52.4 | 107 | 94.1 | 94.1 | 106 | 66.4 | 106 |  | 104 |  | 93.8 | 99.6 | 117 | 102 | 97.1 | 110 | 99.8 | 
CN1CC[C@H](c2c(O)cc(O)c3c(=O)cc(-c4ccccc4Cl)oc23)[C@H](O)C1 [Alvocidib] (1000 nM) | 90.2 | 83.2 | 85.3 | -101 | 77.1 | 24.9 | 85.3 | 85.1 | 50.4 | 115 | 58 | 18.7 | 30.7 | 80.5 | 97.7 | 109 | 56.6 | 65.7
CN1CC[C@H](c2c(O)cc(O)c3c(=O)cc(-c4ccccc4Cl)oc23)[C@H](O)C1 [Alvocidib] (10000 nM) | 88.8 | 66.1 | 81.8 | 92 | 63.9 | -9.96 | 94.9 | 92.5 | 86 | 92.3 | 71.5 | -1.97 | 25.4 | 100 | 102 | 52.6 | 47.7 | 12.8
Nc1nc(Cl)nc2c1ncn2[C@H]1C[C@H](O)[C@@H](CO)O1 [Cladribine] (100 nM) | 99.7 | 127 | 101 | 95.7 | 109 | 104 | 103 | 119 | 98.3 | 85.4 | 110 |  |  | 73.8 | 108 | 72.2 | 78.7 | 98
Nc1nc(Cl)nc2c1ncn2[C@H]1C[C@H](O)[C@@H](CO)O1 [Cladribine] (1000 nM) | 102 | 86.3 | 101 | 73.7 | 107 | 83.4 | 100 |  | 96 | 92.2 | 95.9 | 100 | 86.3 | 85.4 | 101 | 50.6 | 74.4 | 111
Nc1ccn([C@@H]2O[C@H](CO)[C@@H](O)[C@@H]2O)c(=O)n1 [Cytarabine] (1000 nM) | 103 | 111 | 106 | 69.9 | 37.4 | 109 | 109 | 112 | 104 | 117 | 107 | 115 | 106 | 83.5 | 112 | 159 | 97.5 | 85.2
Nc1ccn([C@@H]2O[C@H](CO)[C@@H](O)[C@@H]2O)c(=O)n1 [Cytarabine] (10000 nM) | 100 | 99.4 | 108 | 69.2 | 26.1 | 91.7 | 101 | 64.6 | 95.5 | 96.1 | 111 | 48.4 | 113 | 93.6 | 104 | 156 | 107 | 134
Cc1c2oc3c(C)ccc(C(=O)N[C@@H]4C(=O)N[C@H](C(C)C)C(=O)N5CCC[C@H]5C(=O)N(C)CC(=O)N(C)[C@@H](C(C)C)C(=O)O[C@@H]4C)c3nc-2c(C(=O)N[C@@H]2C(=O)N[C@H](C(C)C)C(=O)N3CCC[C@H]3C(=O)N(C)CC(=O)N(C)[C@@H](C(C)C)C(=O)O[C@@H]2C)c(N)c1=O [Dactinomycin] (100 nM) | 76.7 | 33.4 | 85.4 | 23.9 | 29.5 | 31.6 | 81.8 | 91 | 75.9 | 109 | 61.8 | -3.54 | 17.9 | 89.8 | 98 | 56.9 | 78.6 | 26.1
Cc1c2oc3c(C)ccc(C(=O)N[C@@H]4C(=O)N[C@H](C(C)C)C(=O)N5CCC[C@H]5C(=O)N(C)CC(=O)N(C)[C@@H](C(C)C)C(=O)O[C@@H]4C)c3nc-2c(C(=O)N[C@@H]2C(=O)N[C@H](C(C)C)C(=O)N3CCC[C@H]3C(=O)N(C)CC(=O)N(C)[C@@H](C(C)C)C(=O)O[C@@H]2C)c(N)c1=O [Dactinomycin] (1000 nM) | 89.6 | 93 | 101 | 79.9 | 95.1 | 13.8 | 104 | 59.3 | 113 | 124 | 94.9 | 41.4 | 52.3 | 116 | 104 | 52.8 | 60.5 | 40.6
